# Results from patent US4547507A, “Benzothiopyranopyridinones” (Roussel Uclaf, priority 1982, dated 1985).
# Structures can show the parent of a compound that is named as a salt.
# Columns and labels:
# rat cortical α2 receptor = assay: Test C: [3H]Dihydroergocryptine displacement from rat cortical α2 receptor binding sites; conditions: for IC50: rat cortical membranes, [3H]dihydroergocryptine 0.45 nM, 25° C., 45 minutes in the dark, approximately 80% of binding is α2
# Experimental: Test C--[^3 H]Dihydroergocryptine displacement from rat cortical α2 *receptor binding sites
# (a) Radioligand--[9,10(n)-^3 H]9,10-Dihydroergocryptine (Amersham International, TRK 555, 17.5 Ci/mmole) was used as a 1 μCi/1 μl solution and this stock solution was diluted 1/6250 in assay buffer and 0.1 ml volumes of this were added to 2 ml binding assays. =0.45 nM and =0.016 μCi/binding assay
# *In cortical membranes, [^3 H]dihydroergocryptine binds to both α1 and α2 receptor binding sites under the conditions of assay described here, approximately 80% of the binding is associated with α2 receptors.
# (§1) (b) Membrane preparation--As for Test B
# (c) Non-specific binding--As for Test B
# (d) Displacing compounds--As for Test B
# (e) Assay protocol--As for Test B with the exception that the binding assays were incubated at 25° C. for 45 minutes in the dark.
# [1] = biological target: rat striatal dopamine receptor (Rattus norvegicus, UniProt P61169); assay: Test A: [3H]Spiroperidol displacement from rat striatal dopamine receptor binding sites; conditions: rat striatal membranes, [3H]spiroperidol 0.19 nM, 37° C., 10 minutes, pH 7.6; read-out: Test A receptor DA IC50
# rat striatal dopamine receptor, sequence (P61169 whole entry): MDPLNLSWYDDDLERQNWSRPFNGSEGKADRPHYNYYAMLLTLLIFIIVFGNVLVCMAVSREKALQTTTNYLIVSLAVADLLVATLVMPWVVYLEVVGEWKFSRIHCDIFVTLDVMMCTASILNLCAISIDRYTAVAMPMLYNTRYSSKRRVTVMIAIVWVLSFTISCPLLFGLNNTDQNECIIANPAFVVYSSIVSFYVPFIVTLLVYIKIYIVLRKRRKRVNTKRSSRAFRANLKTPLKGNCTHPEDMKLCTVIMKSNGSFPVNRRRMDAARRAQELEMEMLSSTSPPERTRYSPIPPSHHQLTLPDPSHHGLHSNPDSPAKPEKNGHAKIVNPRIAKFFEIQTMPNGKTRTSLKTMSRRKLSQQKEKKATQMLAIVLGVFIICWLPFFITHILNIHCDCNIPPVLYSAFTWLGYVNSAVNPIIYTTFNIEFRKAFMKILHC
# Experimental: Test A--[^3 H Spiroperidol displacement from rat striatal dopamine receptor binding sites
# (a) Radioligand--[phenyl-4-(n)-^3 H]Spiroperido (Amersham International, TRK 570, 21 Ci/mmol was used as a 1 μCi/1 μl solution in ethanol and this solution was diluted to 250 μCi in 1 ml of ethanol to produce a stock solution. This stock solution was diluted 3.2/10,000 in assay buffer and 0.1 ml volumes of this were added to 2 ml binding assays =0.19 nM [^3 H]spiroperidol and =[…]
# (b) Assay buffer--The assay buffer was a modified 50 mM Tris HCl buffer with a pH of 7.6 containing the following additions: NaCl-120 mM, KCl-5 mM, MgCl2 -1 mM, CaCl2 -2 mM, Pargyline-10 μM and 1-Ascorbic Acid-0.1%
# (c) Membrane preparation--The striata were dissected from male CFHB rats and homogenized in 20 volumes of ice cold 0.32M sucrose with a Teflon/glass homogenizer and the homogenate was centrifuged at 1000 g for 10 minutes. The resulting supernatant was recentrifuged at 30,000 g for 30 minutes and the supernatant was discarded and the pellet was resuspended by homogenization in 30 volumes of ice cold assay buffer.
# (d) Non-specific binding--Non-specific binding was accounted for by the inclusion of 1 μM(+)butaclamol in blank binding assays which required a stock solution of 20 μM in distilled water.
# (e) Displacing compounds--Solutions were prepared at 20x final assay concentration in distilled water.
# (f) Binding assay protocol--1.3 ml assay buffer, 0.5 ml membrane suspension, 0.1 ml distilled H2 O or drug solution and 0.1 ml [^3 H]spiroperidol dilution Binding assays were made up in ice with the [^3 H]spiroperidol being added last and incubated at 37° C. for 10 minutes. The bound ligand was separated by filtration through Whatman GF/C filters under vacuum followed by 2×10 ml rinses of ice cold assay buffer. The filters were dried at 80° C. and counted in 5 ml volumes of ECONOFLUOR (NEN) scintillation cocktail. All binding assays, controls, blanks and each of four displacer concentration were run in triplicate. IC50 values (Test A) were obtained graphically from log dose versus percent inhibition of specific binding plots.
# [2] = biological target: rat cortical muscarinic receptor; assay: Test D: [3H]Quinuclidinyl benzylate displacement from rat cortical muscarinic receptor binding sites; conditions: rat cortical membranes, [3H]quinuclidinyl benzylate 0.31 nM, 25° C., 60 minutes; read-out: Test D MUSC IC50
# Experimental: Test D--[^3 H]Quinuclidinyl benzylate displacement from rat cortical muscarinic receptor binding sites
# (a) Radioligand--DL-[3-^3 H]Quinuclidinyl benzylate (Amersham International, TRK 506, 12 Ci/mmol) was used as a 1 μCi/1 μl solution and this stock solution was diluted 1/13333 in assay buffer and 0.1 ml volumes of this were added to 2 ml binding assay =0.31 nM and =0.0075 μCi/binding assay
# as §1
# (c) Non-specific binding--Non-specific binding was accounted for by the inclusion of 100 μM oxotremorine sesquifumarate in blank binding assays and this required a stock solution of 2 mM in distilled H2 O.
# (d) Displacement compounds--As for Test B
# (e) Assay protocol--As for Test B with the exception that the binding assays were incubated at 25° C. for 60 minutes.
# rat cortical α1 receptor = assay: Test B: [3H]Prazosin displacement from rat cortical α1 receptor binding sites; conditions: rat cerebral cortex membranes, [3H]prazosin 0.1 nM, 25° C., 30 minutes, pH 7.5
# Experimental: Test B--[^3 H]Pyrazosin displacement from rat cortical α1 receptor binding sites (a) Radioligand--[^3 H]Prazosin (Amersham International, TRK 647, 28 Ci/mmole) was used as a 1 μCi/1 μl solution and this stock solution was diluted 1/18,000 in assay buffer and 0.1 ml volumes of this were added to 2 ml binding assay. =0.1 nM [^3 H]Prazosin and =0.0056 μCi/binding assay (b) Membrane preparation--The cerebral cortices were dissected from male CFHB rats and homogenized in 20 volumes of ice cold 0.32M sucrose using a Teflon/glass homogenizer and the homogenate was centrifuged at 1000 g for 10 minutes. The resulting pellet was discarded and the supernatant was recentrifuged at 30,000 g for 30 minutes. The supernatant was discarded and the pellet was resuspended by homogenization in 50 volumes of 50 mM pH 7.5 Tris HCl buffer (assay buffer). (c) Non-specific binding--Non-specific binding was accounted for by the inclusion of 100 μM 1-noradrenaline in blank binding assays which required a stock solution of 2 mM 1-noradrenaline made up fresh daily in 0.1% 1-ascorbic acid. (d) Displacing compounds--Solutions were prepared at 20x final assay concentration in distilled water. (e) Binding assay protocol--1.3 ml assay buffer, 0.5 ml membrane suspension, 0.1 ml distilled H2 O or drug solution and 0.1 ml [^3 H]pyrazosin dilution Binding assays were made up in ice with the [^3 H]pyrazosin being added last and incubated at 25° C. for 30 minutes. The bound ligand was separated by filtration through Whatman GF/C glass fibre filters under vacuum followed by 2×10 ml rinses of ice cold assay buffer. The filters were dried at 80° C. and counted in 5 ml volumes of ECONOFLUOR (NEN) scintillation cocktail. All binding assays, controls, blanks and each of four displacer concentrations were run in triplicate. IC50 values (Test B) were obtained graphically from log dose versus percent inhibition of specific binding plots.
IC50 (rat cortical α2 receptor) [µM],IC50 [1] [µM],IC50 [2] [µM],IC50 (rat cortical α1 receptor) [µM],SMILES,"share of the radioligand binding associated with α2 receptors (rat cortical α2 receptor; cortical membranes, under the conditions of assay)"
1,0.78,100,7.1,"CCOC(=O)CCN1CCc2sc3ccccc3c(=O)c2C1 [Example 21, 2-(2-ethoxycarbonylethyl)-1,2,3,4-tetrahydro-10H-(1)-benzothiopyrano[3,2-c]pyridin-10-one hydrochloride]",–
0.15,0.1,> 100,4.6,"CC(C)CN1CCc2sc3ccccc3c(=O)c2C1 [Example 19, 1,2,3,4-tetrahydro-2-isobutyl-10H-(1)-benzothiopyrano[3,2-c]pyridin-10-one hydrochloride]",–
0.15,0.03,44.7,0.19,O=c1c2c(sc3ccccc13)CCN(CCCn1c(=O)[nH]c3ccccc31)C2 [Example 36],–
0.6,0.16,11.7,1.59,O=c1c2c(sc3ccccc13)CCN(C1CCCCC1)C2 [Example 37],–
0.93,2.8,32.4,3.1,"CN1CCc2sc3ccccc3c(=O)c2C1 [Example 12, 1,2,3,4-tetrahydro-2-methyl-10H-(1)-benzothiopyrano[3,2-c]pyridin-10-one hydrochloride]",–
> 10,0.04,> 100,> 10,"O=c1c2c(sc3ccc(F)cc13)CCN(CC1CCCCC1)C2 [Example 24, 2-cyclohexylmethyl-8-fluoro-1,2,3,4-tetrahydro-10H-(1)-benzothiopyrano[3,2-c]pyridin-10-one hydrochloride]",–
0.32,0.15,> 100,2.82,O=c1c2c(sc3ccccc13)CCN(CC1CCCCCC1)C2 [Example 28],–
0.21,0.23,46.8,0.17,O=c1c2c(sc3ccccc13)CCN(CCc1ccccc1)C2 [Example 32],–
1.6,5.2,19.5,1.7,"O=c1c2c(sc3ccc4ccccc4c13)CCNC2 [Example 5, 1,2,3,4-tetrahydro-12H-naphtho[1',2':5,6]thiopyrano[3,2-c]pyridin-12-one hydrochloride]",–
1,0.68,8.1,0.74,"O=c1c2c(sc3c1ccc1ccccc13)CCNC2 [Example 8, 1,2,3,4-tetrahydro-12H-naphtho[1',2':6,5]thiopyrano[3,2-c]pyridin-12-one hydrochloride]",–
0.65,0.56,74.1,3.4,O=c1c2c(sc3ccccc13)CCN(CCC1OCCCO1)C2 [Example 31],–
0.15,0.17,> 100,2.63,O=c1c2c(sc3ccccc13)CCN(CC1=CCCCC1)C2 [Example 29],–
> 10,> 10,> 100,> 10,"N#CCCN1CCc2sc3ccccc3c(=O)c2C1 [Example 22, 2-(2-cyanoethyl)-1,2,3,4-tetrahydro-10H-(1)-benzothiopyrano[3,2-c]pyridin-10-one hydrochloride]",–
4.3,> 10,26.9,> 10,"COc1ccc2c(=O)c3c(sc2c1)CCNC3 [Example 3, 1,2,3,4-tetrahydro-7-methoxy-10H-(1)-benzothiopyrano[3,2-c]pyridin-10-one hydrochloride]",–
3.3,10,71,10,O=c1c2c(sc3ccccc13)CCN(CCO)C2 [Example 35],–
0.5,0.68,> 100,4,"O=c1c2c(sc3ccccc13)CCN(Cc1ccccc1)C2 [Example 6, 2-benzyl-1,2,3,4-tetrahydro-10H-(1)-benzothiopyrano[3,2-c]pyridin-10-one hydrochloride]",–
0.05,0.04,57.5,0.68,"O=c1c2c(sc3ccccc13)CCN(CC1CCCC1)C2 [Example 27, 2-cyclopentylmethyl-1,2,3,4-tetrahydro-10H-(1)-benzothiopyrano[3,2-c]pyridin-10-one]",–
0.19,0.18,> 100,1.15,O=c1c2c(sc3ccccc13)CCN(CCC1CCCCC1)C2 [Example 30],–
2.9,> 10,57.5,7.8,"COc1ccc2sc3c(c(=O)c2c1)CNCC3 [Example 4, 1,2,3,4-tetrahydro-8-methoxy-10H-(1)-benzothiopyrano[3,2-c]pyridin-10-one hydrochloride]",–
0.17,0.06,87.1,0.68,"CC(C)CCN1CCc2sc3ccccc3c(=O)c2C1 [Example 15, 1,2,3,4-tetrahydro-2-isopentyl-10H-(1)-benzothiopyrano[3,2-c]pyridin-10-onehydrochloride]",–
0.15,0.49,> 100,1.3,"CCCN1CCc2sc3ccccc3c(=O)c2C1 [Example 11, 1,2,3,4-tetrahydro-2-n-propyl-10H-(1)-benzothiopyrano[3,2-c]pyridin-10-one hydrochloride]",–
–,–,–,–,"[3H]C1C(C(=O)NC2(C(C)C)OC3(O)C4CCCN4C(=O)C(CC(C)C)N3C2=O)CN(C)C2Cc3c[nH]c4cccc(c34)C12[3H] (centres unmarked) [[^3 H]dihydroergocryptine, [9,10(n)-^3 H]9,10-Dihydroergocryptine, reference compound]",approximately 80%
0.02,0.02,> 100,0.02,"O=C(CCCN1CCc2sc3ccccc3c(=O)c2C1)c1ccc(F)cc1 [Example 16, 2-(4-p-fluorophenyl-4-oxobutyl)-1,2,3,4-tetrahydro-10H-(1)-benzothiopyrano-[3,2-c]pyridin-10-one hydrochloride]",–
